The text below walks through data of the supplement of paper PMC10307832.

Assay in all cases: relative viability (nuclei count vs DMSO), 5 days (fraction); higher = more cells survive
Compound in experiment [1]: C#Cc1cccc(Nc2ncnc3cc(OC)c(OCCCCCCC(=O)NO)cc23)c1 [CUDC-101] + C[C@]1(O)C[C@@H](c2nc(-c3ccc4ccc(-c5ccccc5)nc4c3)c3c(N)nccn32)C1 [Linsitinib] (partner 1 µM)
An outline of the steps:
(§1)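 Relative viability was taken as the ratio of nuclei in treated wells to nuclei in vehicle wells. Lung cancer cell lines in 1536-well plates received compounds by pin tool one day after seeding, either one drug alone or a fixed anchor-drug dose plus five library-drug doses (not always all listed) in √10 steps. Nuclei were counted on 4× images after 5 days of treatment, and values are medians of duplicate plates.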

Compound in experiment [2]: C1=CC=C2C(=C1)N=C(S2)C(C#N)C3=NC(=NC=C3)NCCC4=CN=CC=C4 + Cc1nc(Nc2ncc(C(=O)Nc3c(C)cccc3Cl)s2)cc(N2CCN(CCO)CC2)n1 [Dasatinib] (partner 0.075 µM)
Summed up:
as §1

Compound in experiment [3]: COc1cc2/c(=N/c3ccc(Br)cc3F)nc[nH]c2cc1OCC1CCN(C)CC1 [Vandetanib] + COc1cccc2cc(-c3nc([C@H]4CC[C@H](C(=O)O)CC4)n4ncnc(N)c34)[nH]c12 [OSI-027] (partner 0.5 µM)
Summed up:
as §1

Compound in experiment [4]: COc1cc2/c(=N/c3ccc(Br)cc3F)nc[nH]c2cc1OCC1CCN(C)CC1 [Vandetanib] + O=C(c1cc(Cc2n[nH]c(=O)c3ccccc23)ccc1F)N1CCN(C(=O)C2CC2)CC1 [Olaparib] (partner 8 µM)
Summed up:
as §1

As for NCI-H2009, the relative viability in experiment [1] (first compound 0.01 µM) turned out to be 1.21; in experiment [1] (first compound 0.03162 µM), 1.14; in experiment [1] (first compound 0.1 µM), 1.19; in experiment [1] (first compound 0.3162 µM), 1.2; in experiment [1] (first compound 1 µM), 1.17; in experiment [2] (first compound 0.005 µM) it was 0.257. The relative viability in experiment [2] (first compound 0.01581 µM) turned out to be 0.25; in experiment [2] (first compound 0.05 µM), 0.261; in experiment [2] (first compound 0.1581 µM), 0.324; in experiment [2] (first compound 0.5 µM), 0.267; in experiment [3] (first compound 0.02 µM) it was 0.643; in experiment [3] (first compound 0.06325 µM) it was 0.6. The relative viability in experiment [3] (first compound 0.2 µM) is 0.687; in experiment [3] (first compound 0.6325 µM) it was 0.644; in experiment [3] (first compound 2 µM) it was 0.59; in experiment [4] (first compound 0.02 µM), 0.649; in experiment [4] (first compound 0.06325 µM), 0.668; in experiment [4] (first compound 0.2 µM), 0.658. The figures for the relative viability in experiment [4] (first compound 0.6325 µM) and in experiment [4] (first compound 2 µM) were 0.688 and 0.716, respectively.

As to NCI-H2023, the relative viability in experiment [1] (first compound 0.01 µM) came out at 0.636; in experiment [1] (first compound 0.03162 µM) it was 0.482; in experiment [1] (first compound 0.1 µM), 0.606; in experiment [1] (first compound 0.3162 µM), 0.776; in experiment [1] (first compound 1 µM), 0.608; in experiment [2] (first compound 0.005 µM), 0.454. The relative viability is 0.519 in experiment [2] (first compound 0.01581 µM); 0.504 in experiment [2] (first compound 0.05 µM); 0.78 in experiment [2] (first compound 0.1581 µM); 0.364 in experiment [2] (first compound 0.5 µM); 0.375 in experiment [3] (first compound 0.02 µM); 0.34 in experiment [3] (first compound 0.06325 µM). Also, the relative viability in experiment [3] (first compound 0.2 µM) was 0.429; in experiment [3] (first compound 0.6325 µM), 0.37; in experiment [3] (first compound 2 µM), 0.41; in experiment [4] (first compound 0.02 µM), 0.464; in experiment [4] (first compound 0.06325 µM), 0.473; in experiment [4] (first compound 0.2 µM), 0.484. Further, the results for the relative viability in experiment [4] (first compound 0.6325 µM) and in experiment [4] (first compound 2 µM) were 0.466 and 0.479, respectively.

With NCI-H2085, the relative viability worked out at 0.808 in experiment [1] (first compound 0.01 µM); 0.985 in experiment [1] (first compound 0.03162 µM); 0.914 in experiment [1] (first compound 0.1 µM); 0.929 in experiment [1] (first compound 0.3162 µM); 0.792 in experiment [1] (first compound 1 µM); 0.277 in experiment [2] (first compound 0.005 µM). Also, the relative viability in experiment [2] (first compound 0.01581 µM) was determined as 0.216; in experiment [2] (first compound 0.05 µM), 0.236; in experiment [2] (first compound 0.1581 µM), 0.237; in experiment [2] (first compound 0.5 µM), 0.219; in experiment [3] (first compound 0.02 µM), 0.797; in experiment [3] (first compound 0.06325 µM) it was 0.795. In addition, the relative viability stood at 0.735 in experiment [3] (first compound 0.2 µM); 0.673 in experiment [3] (first compound 0.6325 µM); 0.559 in experiment [3] (first compound 2 µM); 0.77 in experiment [4] (first compound 0.02 µM); 0.72 in experiment [4] (first compound 0.06325 µM); 0.808 in experiment [4] (first compound 0.2 µM). The relative viability in experiment [4] (first compound 0.6325 µM) worked out at 0.769; in experiment [4] (first compound 2 µM), 0.712.

As to NCI-H2087, the relative viability came to 0.916 in experiment [1] (first compound 0.01 µM); 0.87 in experiment [1] (first compound 0.03162 µM); 1.01 in experiment [1] (first compound 0.1 µM); 0.882 in experiment [1] (first compound 0.3162 µM); 0.812 in experiment [1] (first compound 1 µM); 0.72 in experiment [2] (first compound 0.005 µM). The relative viability came to 0.927 in experiment [2] (first compound 0.01581 µM); 0.81 in experiment [2] (first compound 0.05 µM); 1.09 in experiment [2] (first compound 0.1581 µM); 0.651 in experiment [2] (first compound 0.5 µM); 0.524 in experiment [3] (first compound 0.02 µM); 0.526 in experiment [3] (first compound 0.06325 µM). Moreover, the relative viability stood at 0.581 in experiment [3] (first compound 0.2 µM); 0.614 in experiment [3] (first compound 0.6325 µM); 0.513 in experiment [3] (first compound 2 µM); 0.497 in experiment [4] (first compound 0.02 µM); 0.567 in experiment [4] (first compound 0.06325 µM); 0.644 in experiment [4] (first compound 0.2 µM). Also, the results for the relative viability in experiment [4] (first compound 0.6325 µM) and in experiment [4] (first compound 2 µM) were 0.613 and 0.639, respectively.

For NCI-H2126, the relative viability worked out at 0.742 in experiment [1] (first compound 0.01 µM); 0.646 in experiment [1] (first compound 0.03162 µM); 0.733 in experiment [1] (first compound 0.1 µM); 0.648 in experiment [1] (first compound 0.3162 µM); 0.586 in experiment [1] (first compound 1 µM); 0.603 in experiment [2] (first compound 0.005 µM). The relative viability in experiment [2] (first compound 0.01581 µM) was 0.543; in experiment [2] (first compound 0.05 µM), 0.573; in experiment [2] (first compound 0.1581 µM), 0.584; in experiment [2] (first compound 0.5 µM), 0.49; in experiment [3] (first compound 0.02 µM) it was 0.694; in experiment [3] (first compound 0.06325 µM), 0.661. Also, the relative viability in experiment [3] (first compound 0.2 µM) worked out at 0.64; in experiment [3] (first compound 0.6325 µM), 0.627; in experiment [3] (first compound 2 µM) it was 0.648; in experiment [4] (first compound 0.02 µM) it was 0.883; in experiment [4] (first compound 0.06325 µM) it was 0.888; in experiment [4] (first compound 0.2 µM) it was 0.818. For the same cell line, the relative viability amounted to 0.923 in experiment [4] (first compound 0.6325 µM) and 0.88 in experiment [4] (first compound 2 µM).

Regarding NCI-H2228, the relative viability in experiment [1] (first compound 0.01 µM) turned out to be 0.894; in experiment [1] (first compound 0.03162 µM), 0.652; in experiment [1] (first compound 0.1 µM), 0.625; in experiment [1] (first compound 0.3162 µM), 0.722; in experiment [1] (first compound 1 µM), 0.949; in experiment [2] (first compound 0.005 µM), 0.295. Besides, the relative viability in experiment [2] (first compound 0.01581 µM) is 0.491; in experiment [2] (first compound 0.05 µM), 0.442; in experiment [2] (first compound 0.1581 µM), 0.514; in experiment [2] (first compound 0.5 µM), 0.423; in experiment [3] (first compound 0.02 µM) it was 0.651; in experiment [3] (first compound 0.06325 µM), 0.42. The relative viability in experiment [3] (first compound 0.2 µM) was found to be 0.744; in experiment [3] (first compound 0.6325 µM), 0.422; in experiment [3] (first compound 2 µM), 0.631; in experiment [4] (first compound 0.02 µM) it was 0.65; in experiment [4] (first compound 0.06325 µM), 0.566; in experiment [4] (first compound 0.2 µM), 0.719. The figures for the relative viability in experiment [4] (first compound 0.6325 µM) and in experiment [4] (first compound 2 µM) were 0.661 and 0.559, respectively.

Consider NCI-H2347, for which the relative viability came out at 1.09 in experiment [1] (first compound 0.01 µM); 0.91 in experiment [1] (first compound 0.03162 µM); 0.963 in experiment [1] (first compound 0.1 µM); 1.05 in experiment [1] (first compound 0.3162 µM); 0.98 in experiment [1] (first compound 1 µM); 0.359 in experiment [2] (first compound 0.005 µM). Further, the relative viability in experiment [2] (first compound 0.01581 µM) was 0.814; in experiment [2] (first compound 0.05 µM), 0.261; in experiment [2] (first compound 0.1581 µM), 0.347; in experiment [2] (first compound 0.5 µM) it was 0.307; in experiment [3] (first compound 0.02 µM) it was 0.518; in experiment [3] (first compound 0.2 µM), 0.386. Besides, the relative viability in experiment [3] (first compound 0.6325 µM) amounted to 0.492; in experiment [3] (first compound 2 µM), 0.361; in experiment [4] (first compound 0.02 µM), 0.538; in experiment [4] (first compound 0.06325 µM), 0.525; in experiment [4] (first compound 0.2 µM) it was 0.596; in experiment [4] (first compound 0.6325 µM), 0.692. Also, in experiment [4] (first compound 2 µM), the relative viability was found to be 0.553.
